In patent US20240199605A1, “SMALL MOLECULAR INHIBITORS OF NF-kB INDUCING KINASE” (Janssen Pharmaceutica NV, priority 2019, published 2024):
Like-named read-outs stand apart in the source and are kept apart here.

Columns and labels:
[1] = molecular target: recombinant human NF-kappaB-inducing kinase (NIK/MAP3K14) (Homo sapiens (Human), UniProt Q99558); assay: Inhibition of auto-phosphorylation of recombinant human NIK/MAP3K14 (AlphaScreen); format: biochemical; conditions: NIK auto-phosphorylation, 5 μM ATP, 1 nM NIK, 2 h at 25° C.; average of values
recombinant human NF-kappaB-inducing kinase (NIK/MAP3K14), sequence (Q99558 whole entry): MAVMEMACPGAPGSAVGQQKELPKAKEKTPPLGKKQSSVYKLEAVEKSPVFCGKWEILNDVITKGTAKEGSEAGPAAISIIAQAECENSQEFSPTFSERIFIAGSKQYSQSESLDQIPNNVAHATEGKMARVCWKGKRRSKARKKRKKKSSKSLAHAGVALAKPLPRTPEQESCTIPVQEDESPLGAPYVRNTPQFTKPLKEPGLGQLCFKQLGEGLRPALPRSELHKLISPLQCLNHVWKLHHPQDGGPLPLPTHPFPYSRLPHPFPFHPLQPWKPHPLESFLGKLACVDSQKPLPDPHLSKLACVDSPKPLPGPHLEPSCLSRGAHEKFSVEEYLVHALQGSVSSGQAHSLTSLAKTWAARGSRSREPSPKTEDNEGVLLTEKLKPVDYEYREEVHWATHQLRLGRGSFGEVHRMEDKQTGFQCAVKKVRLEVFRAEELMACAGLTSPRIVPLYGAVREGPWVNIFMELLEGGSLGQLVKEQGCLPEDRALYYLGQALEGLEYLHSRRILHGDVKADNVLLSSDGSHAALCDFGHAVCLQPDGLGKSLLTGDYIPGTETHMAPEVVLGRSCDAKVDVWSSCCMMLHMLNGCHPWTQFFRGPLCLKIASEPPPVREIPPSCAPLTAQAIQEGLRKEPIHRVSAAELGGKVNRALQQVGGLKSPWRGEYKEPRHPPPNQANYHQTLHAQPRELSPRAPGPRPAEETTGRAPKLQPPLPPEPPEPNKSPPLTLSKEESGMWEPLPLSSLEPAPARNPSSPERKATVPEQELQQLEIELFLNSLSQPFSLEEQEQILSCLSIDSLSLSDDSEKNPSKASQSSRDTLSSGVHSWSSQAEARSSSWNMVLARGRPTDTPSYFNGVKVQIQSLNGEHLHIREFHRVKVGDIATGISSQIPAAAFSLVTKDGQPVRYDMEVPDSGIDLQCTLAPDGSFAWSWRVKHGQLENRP
In short: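 GST-tagged NIK (1 nM) auto-phosphorylated with 5 μM ATP for 2 h at 25° C. in 50 mM Tris pH 7.5, 5 mM MgCl2, 1 mM EGTA, 1 mM DTT, 0.1 mM Na3VO4, 0.01% Tween 20 (0.7% DMSO). Detected by AlphaScreen via anti-phospho-IKK Ser176/180 antibody; IC50 from sigmoidal fit of % inhibition versus log concentration.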

[2] = test system: p-IKKα levels in L363 (NIK translocated multiple myeloma) cells; assay: Effect of compounds on p-IKKα levels in L363 cells (AlphaLISA SureFire Ultra); format: cell-based, human; conditions: BAFF stimulated, MG132, 6 h, average of values, read-out: Assay 2 IC50
In short: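 Inhibition of p-IKKα (Ser176/180) read by AlphaLISA after 6 h, 37 °C compound exposure (11-point 1:3 series, 0.3% DMSO) of L363 cells pre-incubated overnight ± 250 ng/ml BAFF and plated ± BAFF ± 10 μM MG132. Normalised to BAFF/MG132/DMSO and unstimulated controls; IC50 by sigmoidal fitting, duplicates.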

Row | Structure (SMILES) | IC50 [1] [µM] | IC50 ([2]; Homo sapiens, L-363, 6 h) [µM] | IC50 [2] [µM]
1 | Nc1ncnc2cnc(-c3cccc(C#C[C@@]4(O)CCc5cccnc54)c3)nc12 [Example 155, (S)-7-((3-(8-Aminopyrimido[5,4-d]pyrimidin-2-yl)phenyl)ethynyl)-6,7-dihydro-5H-cyclopenta[b]pyridin-7-ol] | ≤ 0.0005 | 0.0061 | 
2 | CN1CC[C@@](O)(C#Cc2cccc(-c3nc4c(N)ncnc4o3)c2)C1=O [Example 142, (R)-3-((3-(7-Aminooxazolo[5,4-d]pyrimidin-2-yl)phenyl)ethynyl)-3-hydroxy-1-methylpyrrolidin-2-one] | 0.35 | > 5 | 
3 | [2H]C([2H])([2H])N1CCC(O)(C#Cc2cccc(-c3ncc4ccnc(N)c4n3)c2)C1=O (stereo in doubt) [Example 66, (R)-3-[2-[3-(8-Aminopyrido[3,4-d]pyrimidin-2-yl)phenyl]ethynyl]-3-hydroxy-1-(trideuteriomethyl)pyrrolidin-2-one] | ≤ 0.0005 | 0.0045 | 
4 | CN1CC[C@@](O)(C#Cc2cccc(-c3ncc4c(C(=O)Oc5ccccc5)cnc(N)c4n3)c2)C1=O [Example 128, (R)-Phenyl 8-amino-2-[3-[2-(3-hydroxy-1-methyl-2-oxo-pyrrolidin-3-yl)ethynyl]phenyl]pyrido[3,4-d]pyrimidine-5-carboxylate] | 0.0006 | 0.028 | 
5 | CN1CC[C@@](O)(C#Cc2cccc(-c3ncc4c(Cl)cnc(N)c4n3)c2)C1=O [Example 103, (R)-3-((3-(8-Amino-5-chloropyrido[3,4-d]pyrimidin-2-yl)phenyl)ethynyl)-3-hydroxy-1-methylpyrrolidin-2-one] | ≤ 0.0005 | 0.0058 | 
6 | [2H]C([2H])([2H])N1CC[C@@](O)(C#Cc2ccc(C)c(-c3ccc4ccnc(N)c4c3)c2)C1=O [Example 70, (R)-3-[2-[3-(1-Amino-7-isoquinolyl)-4-methyl-phenyl]ethynyl]-3-hydroxy-1-(trideuteriomethyl)pyrrolidin-2-one] | 0.026 |  | 2.21
7 | COc1ccc(C#C[C@]2(O)CCN(C)C2=O)cc1-c1ncc2ccnc(N)c2n1 [Example 53, (R)-3-((3-(8-Aminopyrido[3,4-d]pyrimidin-2-yl)-4-methoxyphenyl)ethynyl)-3-hydroxy-1-methylpyrrolidin-2-one] | 0.002 | 0.049 | 
8 | Cc1cc([C@](C)(O)C#Cc2cccc(-c3ccc4ccnc(N)c4n3)c2)no1 [Example 89, (R)-4-[3-(8-Amino-1,7-naphthyridin-2-yl)phenyl]-2-(5-methylisoxazol-3-yl)but-3-yn-2-ol] | 0.0023 | 0.59 | 
9 | CN1CC[C@@](O)(C#Cc2cccc(-c3ccc4cnnc(N)c4c3)c2)C1=O [Example 96, (R)-3-[2-[3-(4-Aminophthalazin-6-yl)phenyl]ethynyl]-3-hydroxy-1-methyl-pyrrolidin-2-one] | 0.029 | > 5 | 
10 | Nc1ncnc2cnc(-c3cccc(C#C[C@]4(O)CCn5ccnc54)c3)nc12 [Example 146, (R)-7-[2-[3-(4-Aminopyrimido[5,4-d]pyrimidin-6-yl)phenyl]ethynyl]-5,6-dihydropyrrolo[1,2-a]imidazol-7-ol] | ≤ 0.0005 | 0.0027 | 
11 | Cc1nc(-c2cccc(C#C[C@]3(O)CCN(C)C3=O)c2)nc2c(N)nccc12 [Example 37, (R)-3-((3-(8-Amino-4-methylpyrido[3,4-d]pyrimidin-2-yl)phenyl)ethynyl)-3-hydroxy-1-methylpyrrolidin-2-one] | 0.0006 | 0.035 | 
12 | Cc1ccc(C#C[C@]2(O)CCN(CC(F)(F)F)C2=O)cc1-c1ccc2ccnc(N)c2c1 [Example 77, (R)-3-[2-[3-(1-Amino-7-isoquinolyl)-4-methyl-phenyl]ethynyl]-3-hydroxy-1-(2,2,2-trifluoroethyl)pyrrolidin-2-one] | > 5 | > 5 | 
13 | CCc1cnc(N)c2nc(-c3cccc(C#C[C@]4(O)CCN(C)C4=O)c3)ncc12 [Example 129, (R)-3-((3-(8-Amino-5-ethylpyrido[3,4-d]pyrimidin-2-yl)phenyl)ethynyl)-3-hydroxy-1-methylpyrrolidin-2-one] | ≤ 0.0005 | 0.012 | 
14 | [2H]C([2H])([2H])N1CCC(O)(C#Cc2cccc(-c3ncc4c(C)cnc(N)c4n3)c2)C1=O (stereo in doubt) [Example 87, (R)-3-[2-[3-(8-Amino-5-methyl-pyrido[3,4-d]pyrimidin-2-yl)phenyl]ethynyl]-3-hydroxy-1-(trideuteriomethyl)pyrrolidin-2-one] | ≤ 0.0005 | 0.006 | 
15 | CN1CC[C@@](O)(C#Cc2cccc(-c3cc4c(N)ncnc4cn3)c2)C1=O [Example 111, (R)-3-[2-[3-(4-Aminopyrido[3,4-d]pyrimidin-6-yl)phenyl]ethynyl]-3-hydroxy-1-methyl-pyrrolidin-2-one] | 0.0012 | 0.16 | 
16 | CN1CC[C@@](O)(C#Cc2cccc(-c3ccc4ccnc(N)c4c3)c2)C1=O [Example 36, (R)-3-[2-[3-(1-Amino-7-isoquinolyl)phenyl]ethynyl]-3-hydroxy-1-methyl-pyrrolidin-2-one] | 0.0019 | 0.2 | 

Now from value to molecule:

Row | IC50 [1] [µM] | IC50 ([2]; Homo sapiens, L-363, 6 h) [µM] | IC50 [2] [µM] | Structure (SMILES)
17 | ≤ 0.0005 | 0.012 |  | [2H]C([2H])([2H])N1CC[C@@](O)(C#Cc2cccc(-c3ccc4nc(CF)nc(N)c4n3)c2)C1=O [Example 208, (R)-3-((3-(4-Amino-2-(fluoromethyl)pyrido[3,2-d]pyrimidin-6-yl)phenyl)ethynyl)-3-hydroxy-1-(methyl-d3)pyrrolidin-2-one]
18 | 0.0012 | 0.1 |  | CN1CC[C@@](O)(C#Cc2cccc(-c3ccc4nc(N)nc(N)c4n3)c2)C1=O [Example 203, (R)-3-((3-(2,4-Diaminopyrido[3,2-d]pyrimidin-6-yl)phenyl)ethynyl)-3-hydroxy-1-methylpyrrolidin-2-one]
19 | 0.0006 | 0.0014 |  | [2H]c1nc(N)c2nc(-c3cccc(C#C[C@]4(O)CCN(C)C4=O)c3)cc(C(C)C)c2n1 [Example 283, (R)-3-((3-(4-Amino-8-isopropylpyrido[3,2-d]pyrimidin-6-yl-2-d)phenyl)ethynyl)-3-hydroxy-1-methylpyrrolidin-2-one]
20 | 3.34 |  | > 5 | CN1CCC(O)(C#Cc2cccc(-c3ncc4ccnc(N5CCC5)c4n3)c2)C1=O (stereo in doubt) [Example 248, (S)-3-((3-(8-(Azetidin-1-yl)pyrido[3,4-d]pyrimidin-2-yl)phenyl)ethynyl)-3-hydroxy-1-methylpyrrolidin-2-one]
21 | ≤ 0.0005 | 0.0089 |  | [2H]c1nc(N)c2nc(-c3cccc(C#C[C@@]4(O)C(=O)N(C)[C@@H]5C[C@@H]54)c3)ccc2n1 [Example 276, (1R,4R,5S)-4-((3-(4-Aminopyrido[3,2-d]pyrimidin-6-yl-2-d)phenyl)ethynyl)-4-hydroxy-2-methyl-2-azabicyclo[3.1.0]hexan-3-one]
22 | 0.0007 | 0.059 |  | Cc1nc(N)c2nc(-c3cccc(C#C[C@@](C)(O)c4cscn4)c3)ccc2n1 [Example 212, (R)-4-[3-(4-Amino-2-methyl-pyrido[3,2-d]pyrimidin-6-yl)phenyl]-2-thiazol-4-yl-but-3-yn-2-ol]
23 | 0.11 | 2.74 |  | Cc1ccc(C#C[C@@]2(O)CCN(C)C2=O)cc1-c1ccc2ncnc(N)c2n1 [Example 260, (S)-3-((3-(4-Aminopyrido[3,2-d]pyrimidin-6-yl)-4-methylphenyl)ethynyl)-3-hydroxy-1-methylpyrrolidin-2-one]
24 | ≤ 0.0005 | 0.0085 |  | [2H]C([2H])([2H])N1CC[C@@](O)(C#Cc2ccc(C)c(-c3nc4c(N)ncnc4s3)c2)C1=O [Example 216, (R)-3-[2-[3-(7-Aminothiazolo[5,4-d]pyrimidin-2-yl)-4-methyl-phenyl]ethynyl]-3-hydroxy-1-(trideuteriomethyl)pyrrolidin-2-one]
25 | 0.0019 | 0.028 |  | Cc1nc(N)c2nc(-c3cccc(C#C[C@]4(O)C[C@@H](C)N(C)C4=O)c3)ccc2n1 [Example 265, (3R,5R)-3-((3-(4-Amino-2-methylpyrido[3,2-d]pyrimidin-6-yl)phenyl)ethynyl)-3-hydroxy-1,5-dimethylpyrrolidin-2-one]
26 | 0.23 | 1.33 |  | CN1CC[C@](O)(C#Cc2cccc(-c3cc(Br)c4ncnc(N)c4n3)c2)C1=O [Example 254, (S)-3-((3-(4-Amino-8-bromopyrido[3,2-d]pyrimidin-6-yl)phenyl)ethynyl)-3-hydroxy-1-methylpyrrolidin-2-one]
27 | 4.88 | > 5 |  | CN1CC[C@@](C#Cc2cccc(-c3ccc4ncnc(N)c4n3)c2)(C(F)F)C1=O [Example 205, (S)-3-((3-(4-Aminopyrido[3,2-d]pyrimidin-6-yl)phenyl)ethynyl)-3-(difluoromethyl)-1-methylpyrrolidin-2-one]
28 | 0.0012 | 0.074 |  | Cc1nc(N)c2nc(-c3cc(C#C[C@]4(O)CCN(C)C4=O)ccc3C)sc2n1 [Example 182, (R)-3-[2-[3-(7-Amino-5-methyl-thiazolo[5,4-d]pyrimidin-2-yl)-4-methyl-phenyl]ethynyl]-3-hydroxy-1-methyl-pyrrolidin-2-one]
29 | 0.04 | 1.19 |  | CN1CC[C@@](O)(C#Cc2cccc(-c3ccc4ncnc(N5CC(S(C)(=O)=O)C5)c4n3)c2)C1=O [Example 245, (R)-3-Hydroxy-1-methyl-3-((3-(4-(3-(methylsulfonyl)azetidin-1-yl)pyrido[3,2-d]pyrimidin-6-yl)phenyl)ethynyl)pyrrolidin-2-one]
